19 compounds from patent US20210221784A1, “COMPOUNDS AND COMPOSITIONS FOR THE TREATMENT OF PAIN” (Université de Strasbourg, priority 2018, published 2021) can be followed below.

One data set addresses T1, hNPFFR2 (Homo sapiens, UniProt Q9Y5X5).
T1 construct: expressed in transfected cells; membranes
Nature of the data set: Radioligand binding competition, membranes from CHO cells expressing hNPFFR2. As to conditions: 0.015 nM [D-Tyr1[125I], N-MePhe3]-NPFF, 1 hr at 25° C.; for Ki: read-out: NPFF2-R Ki. The protocol:
(§1) Competition experiments with membranes from CHO cells stably expressing hNPFFR1 and hNPFFR2 were performed essentially as described in Elhabazi, K., et al. Neuropharmacology, 2013. 75C, 164-171., Briefly, hNPFFR1 or hNPFFR2 membranes (5 to 10 μg of proteins) were incubated (1 hr at 25° C.; 0.25 mL total volume) with 0.015 nM [D-Tyr1[125I], N-MePhe3]-NPFF (Hartmann Analytic GmbH) in 50 mM HEPES (pH 7.4), 1 mM CaCl2, 1 mM MgCl2 and 0.1% bovine serum albumin. Non-specific binding was determined in the presence of 10 μM RFRP-3. Incubation was terminated by rapid filtration through a 96-well GF/B unifilter apparatus (Perkin Elmer Life and Analytical Sciences, Courtaboeuf, France). Unifilters were washed five times with binding buffer, then dried for 1 h at 65° C. After addition of 40 μL scintillation cocktail (Microscint-O, Perkin Elmer) per well, bound radioactivity was determined on a TopCount scintillation counter (Perkin Elmer).

For a further data set, the target named is T2, hNPFFR1 (Homo sapiens, UniProt Q9GZQ6).
T2 construct: expressed in transfected cells; membranes
The data set can be described thus: Radioligand binding competition, membranes from CHO cells expressing hNPFFR1. As to conditions: 0.015 nM [D-Tyr1[125I], N-MePhe3]-NPFF, 1 hr at 25° C.; for Ki: read-out: NPFF1-R Ki. The protocol: as §1

Data set [1] deals with T3, human NPFFR1 (hNPFFR1) receptor (Homo sapiens, UniProt Q9GZQ6).
T3 construct: expressed in transfected cells; host or cells: HEK-293 T cells, transient co-transfection
The data set can be described thus: Human NPFFR1 evaluation using BRET biosensors in HEK-293 T cells. It counts as cell-based. As to conditions: hNPFFR1 in HEK-293 T cells, stimulated by EC80 RFRP-3, read-out: IC50 of antagonist activity. The protocol: Compounds of the present invention were tested successively for their agonist and antagonist activities on human NPFFR1 (hNPFFR1) receptor transiently over-expressed in HEK-293 T cells. Compounds exert agonist activity if, by themselves in absence of neuropeptide RFRP-3 (also named NPVF) they activate hNPFFR1; and they exert antagonist activity if they decrease the action of RFRP-3 on the receptor. The assay used to measure compound activity is based on BRET (Bioluminescence Resonance Energy Transfer) biosensors and is designed to monitor the plasma membrane translocation of protein that interacts with specific Ga subunit. The specific effector (luciferase tagged: BRET donor) recruited at the membrane will be in close proximity to a plasma membrane anchor (GFP tagged: BRET acceptor) to induce a BRET signal (Ramdan et al, 2006, Chapter 5, Current Protocols in Neuroscience).
HEK-293 T cells are maintained in Dulbecco's Modified Eagle's Medium supplemented with 10% Foetal Calf Serum, 1% Penicillin/Streptomycin at 37° C./5% CO2. Cells are co-transfected using polyethylenimine (25 kDa linear) with four DNA plasmids encoding; hNPFFR1, GαoB, a Gi family specific intracellular effector fused to luciferase (BRET donor), a plasma membrane effector fused to GFP (BRET acceptor). After transfection, cells are cultured for 48 h at 37° C./5% CO2.
Receptor activity is detected by changes in BRET signal.
On the day of the assay, cells are detached using trypsin 0.05%, resuspended in assay buffer (1.8 mM CaCl2, 1 mM MgCl2, 2.7 mM KCl, 137 mM NaCl, 0.4 mM NaH2PO4, 5.5 mM D-Glucose, 11.9 mM NaHCO3, 25 mM Hepes) and seeded in 384 well plate at a density of 20,000 cells per well. Then, plates are equilibrated 3.5 hours at 37° C. before adding compounds.
Compounds and luciferase substrate are added to the cells using an automated device (Freedom Evo®, Tecan) and BRET readings are collected on EnVision (PerkinElmer) with specific filters (410 nm BW 80 nm, 515 nm BW 30 nm).
Agonist and antagonist activities of compounds are consecutively evaluated on the same cell plate. Agonist activity is first measured after 10 minutes incubation with compound alone on the cells. Then, cells are stimulated by an EC80 RFRP-3 concentration and luminescence is recorded for additional 10 minutes. EC80 RFRP-3 concentration is the concentration giving 80% of the maximal RFRP-3 response. Agonist or antagonist activities are evaluated in comparison to basal signals evoked by assay buffer or EC80 RFRP-3 alone, respectively.
For IC50 determination, a dose-response test is performed using 20 concentrations (ranging over 6 logs) of each compound. Dose-response curves are fitted using the sigmoidal dose-response (variable slope) analysis in GraphPad Prism software (GraphPad Software) and IC50 of antagonist activity is calculated. Dose-response experiments are performed in duplicate, in two independent experiments.

T3 sequence (Q9GZQ6 whole entry): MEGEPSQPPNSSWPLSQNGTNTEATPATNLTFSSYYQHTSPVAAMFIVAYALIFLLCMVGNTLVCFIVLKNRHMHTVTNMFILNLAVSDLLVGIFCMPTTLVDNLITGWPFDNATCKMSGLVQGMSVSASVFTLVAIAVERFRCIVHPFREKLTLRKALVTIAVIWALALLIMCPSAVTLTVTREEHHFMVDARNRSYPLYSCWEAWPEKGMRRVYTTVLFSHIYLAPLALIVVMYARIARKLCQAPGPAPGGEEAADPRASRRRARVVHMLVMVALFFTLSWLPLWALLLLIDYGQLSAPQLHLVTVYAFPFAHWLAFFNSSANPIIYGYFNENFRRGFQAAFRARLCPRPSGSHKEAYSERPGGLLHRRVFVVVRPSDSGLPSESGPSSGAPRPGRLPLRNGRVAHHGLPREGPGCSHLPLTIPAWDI
T2 sequence (Q9GZQ6 whole entry): as above
T1 sequence (Q9Y5X5 whole entry): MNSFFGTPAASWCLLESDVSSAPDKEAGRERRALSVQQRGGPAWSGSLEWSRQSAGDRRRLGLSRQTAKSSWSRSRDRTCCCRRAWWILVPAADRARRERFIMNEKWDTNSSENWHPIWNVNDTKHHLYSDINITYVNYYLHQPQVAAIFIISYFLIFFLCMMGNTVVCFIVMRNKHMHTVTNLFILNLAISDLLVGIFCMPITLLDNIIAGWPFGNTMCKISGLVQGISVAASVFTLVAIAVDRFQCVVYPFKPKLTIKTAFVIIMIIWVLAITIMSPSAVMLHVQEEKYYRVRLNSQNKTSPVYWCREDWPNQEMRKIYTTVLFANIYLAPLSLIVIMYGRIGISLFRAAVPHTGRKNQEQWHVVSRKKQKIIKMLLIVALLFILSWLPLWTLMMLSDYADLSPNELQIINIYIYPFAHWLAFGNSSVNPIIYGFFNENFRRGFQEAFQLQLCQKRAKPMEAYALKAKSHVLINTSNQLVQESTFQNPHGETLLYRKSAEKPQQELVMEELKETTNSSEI

For the compound “3-(2-methoxyethoxyphenyl)pyridine-2,6-diamine [Compound 2h]”, the Ki on hNPFFR2 came to 35700 nM; on hNPFFR1, 26 nM.

`Nc1ccc(-c2cccc(Cl)c2Cl)c(NCCN2CCCCC2)n1` [Compound 5h, 3-(2,3-dichlorophenyl)-N2-(2-(piperidin-1-yl)ethyl)pyridine-2,6-diamine]: the Ki on hNPFFR2 came out at 3200 nM; at hNPFFR1 it was 1920 nM.

As to `CCc1cc(-c2cccc(Cl)c2Cl)c(N)nc1N` [Compound 9b, 3-(2,3-dichlorophenyl)-5-ethylpyridine-2,6-diamine], the Ki was found to be 3300 nM at hNPFFR2 and 1090 nM at hNPFFR1.

As to `Nc1ccc(-c2c(Cl)cccc2Cl)c(N)n1` [Compound 1m, 3-(2,6-dichlorophenyl) pyridine-2,6-diamine], the Ki on hNPFFR2 was more than 10000 nM; at hNPFFR1 it was 94 nM.

Consider `Nc1ccc(CCc2ccccc2)c(N)n1` [Compound 11a, 3-phenethylpyridine-2,6-diamine], for which the inhibition constant Ki on hNPFFR2 amounted to 5400 nM; on hNPFFR1, 189 nM.

In the case of “5-(2-methoxyphenyl)-6-(trifluoromethoxy)pyridin-2-amine [Compound 6f]”, the inhibition constant Ki was more than 10000 nM on hNPFFR2 and more than 5000 nM at hNPFFR1.

With `COCCNc1nc(N)ccc1-c1cccc(Cl)c1Cl` [Compound 5g, 3-(2,3-dichlorophenyl)-N2-(2-methoxyethyl)pyridine-2,6-diamine], the “NPFF2-R Ki (nM)” value at hNPFFR2 is recorded as “ns”. Further, the inhibition constant Ki on hNPFFR1 is 481 nM.

Consider `Nc1ccc(-c2cccc(Cl)c2Cl)c(N2CCCCC2)n1` [Compound 5i, 5-(2,3-dichlorophenyl)-6-(piperidin-1-yl)pyridin-2-amine], for which the Ki on hNPFFR2 was 6300 nM; at hNPFFR1, 440 nM.

Take `Cc1c(Cl)cccc1-c1ccc(N)nc1N` [Compound 1q, 3-(3-chloro-2-methylphenyl) pyridine-2,6-diamine]: the inhibition constant Ki at hNPFFR2 is 7300 nM; on hNPFFR1 it was 112 nM.

Consider `COc1nc(N)ccc1-c1cccc(Cl)c1Cl` [Compound 7a, 5-(2,3-dichlorophenyl)-6-methoxypyridin-2-amine], for which the “NPFF2-R Ki (nM)” value at hNPFFR2 is “ns”. Moreover, the “NPFF1-R Ki (nM)” value at hNPFFR1 is “ns”.

As to “3-(2-(piperidin-1-yl)ethoxy)pyridine-2,6-diamine [Compound 2j]”, the Ki stood at 450 nM on hNPFFR2 and 33 nM at hNPFFR1.

As to `COc1cc(N)nc(N)c1-c1cccc(Cl)c1Cl` [Compound 8a, 3-(2,3-dichlorophenyl)-4-methoxypyridine-2,6-diamine], the Ki on hNPFFR2 was more than 50000 nM; on hNPFFR1 it was 4080 nM.

As to `Nc1ccc(-c2ccoc2)c(N)n1` [Compound 3b, 3-(furan-3-yl)pyridine-2,6-diamine], the “NPFF2-R Ki (nM)” value at hNPFFR2 is recorded as “n.s”. In addition, the “NPFF1-R Ki (nM)” value at hNPFFR1 is recorded as “n.s”.

As for `Nc1ccc(-c2cccc(Cl)c2Cl)c(NCCc2ccccc2)n1` [Compound 5f, 3-(2,3-dichlorophenyl)-N2-phenethylpyridine-2,6-diamine], the results for the inhibition constant (Ki) on hNPFFR2 and at hNPFFR1 were 800 nM and 424 nM, respectively.

As for `Nc1nc(N)c(-c2cccc(Cl)c2Cl)cc1F` [Compound 9a, 3-(2,3-dichlorophenyl)-5-fluoropyridine-2,6-diamine], the results for the Ki at hNPFFR2 and at hNPFFR1 were 1800 nM and 3240 nM, respectively.

On to `Cc1cc(N)ncc1-c1cccc(Cl)c1Cl` [Compound 22, 5-(2,3-Dichloro-phenyl)-4-methyl-pyridin-2-ylamine], for which the melting point fell in the range of 94 to 97 °C. Moreover, the IC50 in data set [1] is more than 1000 nM.

`Cc1cc(Cl)ccc1-c1ccc(N)nc1N` [Compound 54, 3-(4-Chloro-2-methyl-phenyl)-pyridine-2,6-diamine] returned a melting point of 80 to 85 °C. The IC50 in data set [1] was more than 1000 nM.

The compound `Cc1ccc(-c2ccc(N)nc2N)c(OC(C)C)c1` [Compound 46, 3-(2-Isopropoxy-4-methyl-phenyl)-pyridine-2,6-diamine] showed a melting point of 75 to 80 °C. Moreover, in data set [1], the IC50 was more than 1000 nM.

`Cc1ncccc1-c1ccc(N)nc1N` [Compound 84, 3-(2-methyl-3-pyridyl)pyridine-2,6-diamine]: the melting point lay within 192 to 198 °C. For the same compound, the IC50 in data set [1] was more than 1000 nM.

By Ki is commonly meant the equilibrium dissociation constant of an inhibitor or competing ligand from its target. The term IC50 denotes the midpoint of a concentration-inhibition curve. As a reminder, the melting point is the temperature, or range, at which the solid turns liquid.
